Measured values as given in US9376442B2, “Methylpyrrolopyrimidinecarboxamides” (Takeda GmbH, priority 2009, dated 2016).

How the values were obtained:
[1] = molecular target: T1, PDE5A1 (Homo sapiens, UniProt O76074); assay: Inhibition of type 5 phosphodiesterase (PDE5) activity, modified SPA test with human platelet lysate; format: biochemical; conditions: 0.5 μM cGMP, read-out: PDE5A1 inhibitory values [measured as −log IC50 (mol/l)] (converted)
T1 construct: from tissue; host or cells: human platelets from fresh donor blood (10,000 x g supernatant of sonicated lysate)
Summary of the method: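 Scintillation proximity assay with [3H]cGMP tracer at 0.5 μM total cGMP, stopped after 15 min with beads containing IBMX. PDE3 and PDE2 activities suppressed with motapizone (1 μM) and a PDE2 inhibitor (10 nM). Human platelet supernatant served as the enzyme, with compound preincubated 5 min at 37° C; IC50 values from concentration-effect curves.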

[2] = molecular target: T2, PDE4B1 (Homo sapiens, UniProt Q07343); assay: Inhibition of type 4 phosphodiesterase (PDE4) activity, modified SPA test with recombinant PDE4B1 expressed in SF21 insect cells; format: biochemical; conditions: recombinant PDE4B1, 0.5 μM cAMP, read-out: PDE4B1 inhibitory values [measured as −log IC50 (mol/l)] (converted)
T2 construct: made in house; host or cells: SF21 insect cells (baculovirus; pCRBac vector), 1000 x g supernatant of homogenate
Summary of the method: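 Modified [3H]cAMP SPA using 1000×g supernatant of SF21 cells expressing recombinant human PDE4B1, in 20 mM Tris pH 7.4, 0.1 mg/ml BSA, 5 mM Mg2+, 0.5 μM cAMP. After 5 min preincubation at 37 °C, 15 min reaction, stopped with SPA beads plus IBMX; IC50 by non-linear regression.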

T2 sequence (Q07343 whole entry): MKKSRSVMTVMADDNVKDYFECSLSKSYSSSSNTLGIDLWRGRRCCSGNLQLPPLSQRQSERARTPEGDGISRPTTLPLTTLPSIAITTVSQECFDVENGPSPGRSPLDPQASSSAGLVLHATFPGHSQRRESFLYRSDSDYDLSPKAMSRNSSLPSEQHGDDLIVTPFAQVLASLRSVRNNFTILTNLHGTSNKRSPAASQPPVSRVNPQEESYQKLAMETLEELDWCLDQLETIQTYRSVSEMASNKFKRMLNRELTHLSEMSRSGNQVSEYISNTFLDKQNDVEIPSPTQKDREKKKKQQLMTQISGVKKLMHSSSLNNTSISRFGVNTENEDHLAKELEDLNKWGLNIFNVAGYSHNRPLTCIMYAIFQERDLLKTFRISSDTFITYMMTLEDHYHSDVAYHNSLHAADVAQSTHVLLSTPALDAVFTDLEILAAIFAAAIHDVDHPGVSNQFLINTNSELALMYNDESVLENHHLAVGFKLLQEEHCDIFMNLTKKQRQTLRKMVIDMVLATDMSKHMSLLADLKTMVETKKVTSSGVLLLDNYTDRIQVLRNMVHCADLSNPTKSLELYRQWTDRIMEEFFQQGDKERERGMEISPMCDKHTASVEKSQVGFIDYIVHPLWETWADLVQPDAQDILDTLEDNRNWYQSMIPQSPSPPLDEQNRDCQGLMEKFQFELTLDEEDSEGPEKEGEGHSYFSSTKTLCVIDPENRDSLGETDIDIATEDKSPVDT

| SMILES | IC50 [1] [nM] | IC50 [2] [nM] |
| --- | --- | --- |
| CC(=O)N1C[C@@H](NC(=O)c2c(C)[nH]c3c(-c4cc(C(F)F)ccc4OCC4CC4)ncnc23)C[C@@H]1C [Example P24, N-[(3S,5S)-1-Acetyl-5-methylpyrrolidin-3-yl]-4-[2-(cyclopropylmethoxy)-5-(difluoromethyl)phenyl]-6-methyl-5H-pyrrolo[3,2-d]pyrimidine-7-carboxamide] | 1 to 10 | < 100 |
| Cc1[nH]c2c(-c3cc(F)ccc3OCC3CC3)ncnc2c1C(=O)N[C@H]1CC[C@H](NC(=O)[C@H](C)O)CC1 [Example F26, 4-[2-(Cyclopropylmethoxy)-5-fluorophenyl]-N-(trans-4-{[(2S)-2-hydroxypropanoyl]amino}cyclohexyl)-6-methyl-5H-pyrrolo[3,2-d]pyrimidine-7-carboxamide] | < 1 | < 100 |
| CCC(=O)N[C@H]1CC[C@H](NC(=O)c2c(C)[nH]c3c(-c4cc(C(F)F)ccc4OCC4CC4)ncnc23)CC1 [Example P7, 4-[2-(Cyclopropylmethoxy)-5-(difluoromethyl)phenyl]-6-methyl-N-[trans-4-(propanoylamino)cyclohexyl]-5^H-pyrrolo[3,2-d]pyrimidine-7-carboxamide] | < 1 | < 100 |
| COCC(=O)N[C@H]1CC[C@H](NC(=O)c2c(C)[nH]c3c(-c4cc(C)ccc4OCC4CC4)ncnc23)CC1 [Example E86, 4-[2-(Cyclopropylmethoxy)-5-methylphenyl]-N-{trans-4-[(methoxyacetyl)amino]cyclohexyl}-6-methyl-5H-pyrrolo[3,2-d]pyrimidine-7-carboxamide] | < 1 | < 100 |
| Cc1[nH]c2c(-c3cc(C(F)(F)F)ccc3OCC3CC3)ncnc2c1C(=O)N[C@H]1CC[C@@H](NC(=O)[C@H](C)O)CC1 [Example F62, 4-[2-(Cyclopropylmethoxy)-5-(trifluoromethyl)phenyl]-N-(cis-4-{[(2S)-2-hydroxypropanoyl]amino}cyclohexyl)-6-methyl-5H-pyrrolo[3,2-d]pyrimidine-7-carboxamide] | < 1 | < 100 |
| COCC(=O)N[C@H]1CC[C@H](NC(=O)c2c(C)[nH]c3c(-c4cc(C(F)F)ccc4OCC4CC4)ncnc23)[C@H](F)C1 (relative stereo) [Example P171, 4-[2-(Cyclopropylmethoxy)-5-(difluoromethyl)phenyl]-N-{(1S*,2R*,4S*)-2-fluoro-4-[(methoxyacetyl)amino]cyclohexyl}-6-methyl-5H-pyrrolo[3,2-d]pyrimidine-7-carboxamide] | < 1 | < 100 |
| CCOC(=O)N1CCC(NC(=O)c2c(C)[nH]c3c(-c4cc(F)ccc4OCC4CC4)ncnc23)CC1 [Example E40, Ethyl 4-[({4-[2-(cyclopropylmethoxy)-5-fluorophenyl]-6-methyl-5H-pyrrolo[3,2-d]pyrimidin-7-yl}carbonyl)amino]piperidine-1-carboxylate] | < 1 | 100 to 1000 |
| CCC(=O)N[C@H]1CC[C@H](NC(=O)c2c(C)[nH]c3c(-c4cc(C(F)F)ccc4OCC4CC4)ncnc23)C[C@H]1F (relative stereo) [Example P200, 4-[2-(Cyclopropylmethoxy)-5-(difluoromethyl)phenyl]-N-[(1S*,3R*,4S*)-3-fluoro-4-(propanoylamino)cyclohexyl]-6-methyl-5H-pyrrolo[3,2-d]pyrimidine-7-carboxamide] | < 1 | < 100 |
| CCC(=O)N1C[C@@H](NC(=O)c2c(C)[nH]c3c(-c4cc(C(F)F)ccc4OCC4CC4)ncnc23)C[C@@H]1C [Example P25, 4-[2-(Cyclopropylmethoxy)-5-(difluoromethyl)phenyl]-6-methyl-N-[(3S,5S)-5-methyl-1-propanoylpyrrolidin-3-yl]-5H-pyrrolo[3,2-d]pyrimidine-7-carboxamide] | 1 to 10 | < 100 |
| Cc1[nH]c2c(-c3cc(C(F)(F)F)ccc3OCC3CC3)ncnc2c1C(=O)N[C@H]1CC[C@H](NC(=O)CO)CC1 [Example F59, 4-[2-(Cyclopropylmethoxy)-5-(trifluoromethyl)phenyl]-N-{trans-4-[(hydroxyacetyl)amino]cyclohexyl}-6-methyl-5H-pyrrolo[3,2-d]pyrimidine-7-carboxamide] | < 1 | < 100 |
| Cc1[nH]c2c(-c3cc(C(C)C)ccc3OCC3CC3)ncnc2c1C(=O)N[C@H]1CC[C@@H](NC(=O)[C@H](C)O)CC1 [Example F101, 4-[2-(Cyclopropylmethoxy)-5-(propan-2-yl)phenyl]-N-(cis-4-{[(2S)-2-hydroxypropanoyl]amino}cyclohexyl)-6-methyl-5H-pyrrolo[3,2-d]pyrimidine-7-carboxamide] | < 1 | 100 to 1000 |
| CC(=O)N[C@H]1CC[C@H](NC(=O)c2c(C)[nH]c3c(-c4cc(C(F)F)ccc4OCC4CC4)ncnc23)C1 [Example P89, N-[(1S,3S)-3-(Acetylamino)cyclopentyl]-4-[2-(cyclopropylmethoxy)-5-(difluoromethyl)phenyl]-6-methyl-5H-pyrrolo[3,2-d]pyrimidine-7-carboxamide] | < 1 | < 100 |
| COc1ccc(OCC2CC2)c(-c2ncnc3c(C(=O)N[C@H]4CC[C@@H](NC(=O)CO)CC4)c(C)[nH]c23)c1 [Example F45, 4-[2-(Cyclopropylmethoxy)-5-methoxyphenyl]-N-[cis-4-(glycoloylamino)cyclohexyl]-6-methyl-5H-pyrrolo[3,2-d]pyrimidine-7-carboxamide] | < 1 | 100 to 1000 |
| CCC(=O)N1CCC(NC(=O)c2c(C)[nH]c3c(-c4cc(C(F)(F)F)ccc4OCC4CC4)ncnc23)CC1 [Example E91, 4-[2-(Cyclopropylmethoxy)-5-(trifluoromethyl)phenyl]-6-methyl-N-(1-propanoylpiperidin-4-yl)-5H-pyrrolo[3,2-d]pyrimidine-7-carboxamide] | < 1 | < 100 |
| Cc1ccc(OCC2CC2)c(-c2ncnc3c(C(=O)N[C@H]4CC[C@H](NC(=O)CO)CC4)c(C)[nH]c23)c1 [Example F53, 4-[2-(Cyclopropylmethoxy)-5-methylphenyl]-N-{trans-4-[(hydroxyacetyl)amino]cyclohexyl}-6-methyl-5H-pyrrolo[3,2-d]pyrimidine-7-carboxamide] | < 1 | < 100 |
| Cc1[nH]c2c(-c3cc(F)ccc3OCC3CC3)ncnc2c1C(=O)NC1CCN(C(=O)CO)CC1 [Example F23, 4-(2-Cyclopropylmethoxy-5-fluoro-phenyl)-6-methyl-5H-pyrrolo[3,2-d]pyrimidine-7-carboxylic acid [1-(2-hydroxy-acetyl)-piperidin-4-yl]-amide] | 1 to 10 | 100 to 1000 |
| Cc1ccc(OCC2CC2)c(-c2ncnc3c(C(=O)N[C@H]4CCC[C@@H]4O)c(C)[nH]c23)c1 [Example E176, 4-[2-(Cyclopropylmethoxy)-5-methylphenyl]-N-[(1S,2S)-2-hydroxycyclopentyl]-6-methyl-5H-pyrrolo[3,2-d]pyrimidine-7-carboxamide] | < 1 | < 100 |
| Cc1ccc(OCC2CC2)c(-c2ncnc3c(C(=O)N[C@H]4CC[C@@H](NC(=O)CO)CC4)c(C)[nH]c23)c1 [Example F55, 4-[2-(Cyclopropylmethoxy)-5-methylphenyl]-N-{cis-4-[(hydroxyacetyl)amino]cyclohexyl}-6-methyl-5H-pyrrolo[3,2-d]pyrimidine-7-carboxamide] | < 1 | < 100 |
| CCC(=O)N1CCC(NC(=O)c2c(C)[nH]c3c(-c4cc(C)ccc4OCC4CC4)nc(C)nc23)CC1 [Example E170, 4-[2-(Cyclopropylmethoxy)-5-methylphenyl]-2,6-dimethyl-N-(1-propanoylpiperidin-4-yl)-5H-pyrrolo[3,2-d]pyrimidine-7-carboxamide] | < 1 | 100 to 1000 |
| CC(=O)N[C@H]1CC[C@H](NC(=O)c2c(C)[nH]c3c(-c4cc(C(C)C)ccc4OCC4CC4)ncnc23)CC1 [Example E159, N-[trans-4-(Acetylamino)cyclohexyl]-4-[2-(cyclopropylmethoxy)-5-(propan-2-yl)phenyl]-6-methyl-5H-pyrrolo[3,2-d]pyrimidine-7-carboxamide] | < 1 | 100 to 1000 |
| Cc1ccc(OCC2CC2)c(-c2ncnc3c(C(=O)NC4CCN(C(=O)CO)CC4)c(C)[nH]c23)c1 [Example F51] | < 1 | < 100 |
| CCc1ccc(OCC2CC2)c(-c2ncnc3c(C(=O)N[C@@H]4CN(C(C)=O)C[C@H]4O)c(C)[nH]c23)c1 (relative stereo) [Example E154, N-[(3R*,4R*)-1-Acetyl-4-hydroxypyrrolidin-3-yl]-4-[2-(cyclopropylmethoxy)-5-ethylphenyl]-6-methyl-5H-pyrrolo[3,2-d]pyrimidine-7-carboxamide] | 1 to 10 | 100 to 1000 |
| CCC(=O)N[C@H]1CC[C@H](NC(=O)c2c(C)[nH]c3c(-c4cc(C(F)F)ccc4OCC4CC4)ncnc23)C1 [Example P90, 4-[2-(Cyclopropylmethoxy)-5-(difluoromethyl)phenyl]-6-methyl-N-[(1S,3S)-3-(propanoylamino)cyclopentyl]-5H-pyrrolo[3,2-d]pyrimidine-7-carboxamide] | < 1 | < 100 |
| CCc1ccc(OCC2CC2)c(-c2ncnc3c(C(=O)N[C@H]4CC[C@H](NC(=O)COC)CC4)c(C)[nH]c23)c1 [Example E150, 4-[2-(Cyclopropylmethoxy)-5-ethylphenyl]-N-{trans-4-[(methoxyacetyl)amino]cyclohexyl}-6-methyl-5H-pyrrolo[3,2-d]pyrimidine-7-carboxamide] | < 1 | < 100 |
